Converted amounts (≈) assume the structure as drawn. Where two headings read alike, the source gives them in different places.
Columns and labels:
[1] = test system: Aspergillus fumigatus IAM 2034; assay: MIC, two-fold agar dilution, A. fumigatus IAM 2034; format: cell-based; settings: IAM2034
Description: (§1) Minimum inhibitory concentrations (MICs) of nine 4'-N-substituted pradimicin derivatives were determined by two-fold agar dilution method on phosphate-buffered yeast morphology agar (YMA, pH 7.0, Difco Laboratories). A 5-μl of fungal cell suspension containing 2×10^6 cells/ml (2×10^7 cells/ml for Trichophyton mentagrophytes) were spotted on the surface of the agar plates containing test compound. MICs were recorded after 40-hour incubation at 28° C. except for T. mentagrophytes, which required 60-hour incubation to produce visually evaluable growth on the drug-free control plates and were defined as the lowest antibiotic concentrations showing no growth or less than five discrete colonies per spot.
(§2) Medium: yeast morphology agar + 1/15 M phosphate buffer (pH 7.0)
(§3) Incubation conditions: 28° C., 40 hours (C. albicans ATCC 38247 & T.
(§4) Medium: Yeast morphology agar + 1/15 phosphate buffer (pH 7.0).

Candida albicans A9540 [2] = assay: animal or person; format: in vivo, male ICR mice infected with Candida albicans A9540
Description: (§5) The in vivo therapeutic efficacies of seven 4'-N-substituted pradimicin derivatives, KHM-1, KHM-2, KHM-3, KHM-4, KHM-5, KHM-6 and KHM-7 were evaluated in the mouse infected with Candida albicans A9540 and Aspergillus fumigatusIAM 2034. Groups of five specific-pathogen-free male ICR mice weighing 20-25 g at each dose level were intravenously infected with approximately 10 times the 50% lethal dose of C. albicans A9540 (1×10^6 cells/mouse) or A. fumigatus IAM 2034 (1×10^7 cells/mouse). Immediately after the fungal infection, test compounds dissolved with 10% DMSO in distilled water were intravenously given to the mouse at the dosed volume of 0.1 ml/10 g of body weight. […] Untreated control animals died 7 to 13 days post-infection.

Candida tropicalis 85-8 = assay: MIC, two-fold agar dilution, C. tropicalis 85-8; format: cell-based; settings: 858, YMA pH 7.0, 28° C., 40 hours
Description: as §1, §2, §3, §4

[3] = test system: Candida albicans ATCC 32354; assay: MIC, two-fold agar dilution, C. albicans ATCC 32354; format: cell-based; settings: ATCC32354, YMA pH 7.0, 28° C., 40 hours
Description: as §1, §2, §3, §4

[4] = test system: Trichophyton mentagrophytes #4329; assay: MIC, two-fold agar dilution, T. mentagrophytes #4329; format: cell-based
Description: as §1, §2, §3
(§6) mentagrophytes #4329: 28° C., 60 hours).
as §4

[5] = test system: Cryptococcus neoformans D49; assay: MIC, two-fold agar dilution, C. neoformans D49; format: cell-based; settings: YMA pH 7.0, 28° C., 40 hours
Description: as §1, §2, §3, §4

Candida albicans A9540 [6] = assay: MIC, two-fold agar dilution, C. albicans A9540; format: cell-based
Description: as §1, §2, §3, §4

[7] = test system: Candida albicans IAM 4888; assay: MIC, two-fold agar dilution, C. albicans IAM 4888; format: cell-based; settings: IAM4888, YMA pH 7.0, 28° C., 40 hours
Description: as §1, §2, §3, §4

[8] = test system: Candida tropicalis IFO 10241; assay: MIC, two-fold agar dilution, C. tropicalis IFO 10241; format: cell-based; settings: IFO10241, YMA pH 7.0, 28° C., 40 hours
Description: as §1, §2, §3, §4

[9] = test system: Cryptococcus neoformans IAM 4514; assay: MIC, two-fold agar dilution, C. neoformans IAM 4514; format: cell-based; settings: IAM4514
Description: as §1, §2, §3, §4

[10] = test system: Saccharomyces cerevisiae ATCC 9763; assay: MIC, two-fold agar dilution, S. cerevisiae ATCC 9763; format: cell-based; settings: ATCC9763, YMA pH 7.0, 28° C., 40 hours
Description: as §1, §2, §3, §4

Candida albicans 83-2-14 = assay: MIC, two-fold agar dilution, C. albicans 83-2-14; format: cell-based; settings: 83214, YMA pH 7.0, 28° C., 40 hours
Description: as §1, §2, §3, §4

[11] = test system: Aspergillus fumigatus IAM 2034; assay: Therapeutic efficacy in Aspergillus fumigatus systemic infection in mice; format: in vivo, male ICR mice infected with Aspergillus fumigatus IAM 2034; settings: for S/T (No. of survivors/tested) / responders at 12.5 mg/kg / responders at 25 mg/kg / responders at 50 mg/kg: 20th day post-infection; for responders at 12.5 mg/kg / responders at 25 mg/kg / responders at 50 mg/kg: read-out: S/T (No. of survivors/tested) (converted)
Description: as §5

[12] = test system: Candida albicans ATCC 38247; assay: MIC, two-fold agar dilution, C. albicans ATCC 38247; format: cell-based; settings: ATCC38247, YMA pH 7.0, 28° C., 60 hours (table footnote)
Description: as §1, §2, §3, §6, §4

[13] = Aspergillus fumigatus IAM 2034, YMA pH 7.0, 28° C., 40 hours, read-out: MIC
[14] = Table 3, Aspergillus fumigatus IAM 2034, YMA, read-out: MIC Af-3
[15] = Candida albicans, A9540, 480 h, Table 2, C. albicans, mice, iv, 95% confidence limits in parentheses, read-out: PD50 (50% protection dose)
[16] = Table 3, Trichophyton mentagrophytes #4329, YMA, read-out: MIC TM-4
[17] = Trichophyton mentagrophytes #4329, YMA pH 7.0, 28° C., 60 hours, read-out: MIC
[18] = Candida albicans A9540, YMA pH 7.0, 28° C., 40 hours, read-out: MIC
[19] = Table 3, Candida albicans A9540, YMA, read-out: MIC Ca-4
[20] = Cryptococcus neoformans IAM 4514, YMA pH 7.0, 28° C., 40 hours, read-out: MIC
[21] = Table 3, Cryptococcus neoformans IAM 4514, YMA, read-out: MIC Cn-2
[22] = IAM2034, 480 h, Table 3, Aspergillus fumigatus IAM 2034, iv, read-out: PD50 (mice) Af-3
[23] = 480 h, Table 3, Candida albicans A9540, iv, read-out: PD50 (mice) Ca-4
[24] = Aspergillus fumigatus, IAM2034, 480 h, A. fumigatus, mice, 12.5 mg/kg iv
[25] = Aspergillus fumigatus, IAM2034, 480 h, A. fumigatus, mice, 25 mg/kg iv
[26] = Aspergillus fumigatus, IAM2034, 480 h, A. fumigatus, mice, 50 mg/kg iv
[27] = Aspergillus fumigatus, IAM2034, 480 h, Table 2, A. fumigatus, mice, iv, 95% confidence limits in parentheses, read-out: PD50 (50% protection dose)
[28] = Candida albicans, A9540, in Mus musculus, iv, 480 h, read-out: S/T (No. of survivors/tested)

Row | Compound | MIC [1, 13] | MIC [1, 14] | ED50 (Candida albicans A9540 [2]; [15]) | MIC (Candida tropicalis 85-8) | MIC [3] | MIC [4, 16] | MIC [4, 17] | MIC [5] | MIC (Candida albicans A9540 [6]; [18]) | MIC (Candida albicans A9540 [6]; [19]) | MIC [7] | MIC [8] | MIC [9, 20] | MIC [9, 21] | MIC [10] | MIC (Candida albicans 83-2-14) | ED50 [11, 22] | MIC [12] | ED50 (Candida albicans A9540 [2]; [23]) | responders at 12.5 mg/kg [11, 24] | further results
1 | COc1cc(O)c2c(c1)C(=O)c1c(cc3c(c1O)-c1c(cc(C)c(C(=O)N[C@H](C)C(=O)O)c1O)[C@H](O[C@@H]1O[C@H](C)[C@H](N(C)C#N)[C@H](O[C@@H]4OC[C@@H](O)[C@H](O)[C@H]4O)[C@H]1O)[C@H]3O)C2=O [KHM-1, 4'-N-Cyanogradimicin A] | 12.5 µg/mL (≈ 14.4 µM) | 12.5 µg/mL (≈ 14.4 µM) | 13 mg/kg | 12.5 µg/mL (≈ 14.4 µM) | 3.1 µg/mL (≈ 3.58 µM) | 25 µg/mL (≈ 28.9 µM) | 25 µg/mL (≈ 28.9 µM) | 3.1 µg/mL (≈ 3.58 µM) | 3.1 µg/mL (≈ 3.58 µM) | 3.1 µg/mL (≈ 3.58 µM) | 3.1 µg/mL (≈ 3.58 µM) | 12.5 µg/mL (≈ 14.4 µM) | 3.1 µg/mL (≈ 3.58 µM) | 3.1 µg/mL (≈ 3.58 µM) | 1.6 µg/mL (≈ 1.85 µM) | 3.1 µg/mL (≈ 3.58 µM) | > 50 mg/kg | 1.6 µg/mL (≈ 1.85 µM) |  |  | S/T (No. of survivors/tested) (Candida albicans A9540 [2]; C. albicans, mice, 6.3 mg/kg iv, 20th day post-infection): 1/5; S/T (No. of survivors/tested) (Candida albicans A9540 [2]; C. albicans, mice, 12.5 mg/kg iv, 20th day post-infection): 3/5; S/T (No. of survivors/tested) (Candida albicans A9540 [2]; C. albicans, mice, 25 mg/kg iv, 20th day post-infection): 4/5; S/T (No. of survivors/tested) (Candida albicans A9540 [2]; C. albicans, mice, 50 mg/kg iv, 20th day post-infection): 5/5; S/T (No. of survivors/tested) ([11]; A. fumigatus, mice, 6.3 mg/kg iv): 0.5; S/T (No. of survivors/tested) ([11]; A. fumigatus, mice, 12.5 mg/kg iv): 2/5; S/T (No. of survivors/tested) ([11]; A. fumigatus, mice, 25 mg/kg iv): 0/5; S/T (No. of survivors/tested) ([11]; A. fumigatus, mice, 50 mg/kg iv): 1/5; ED50 ([11]; Aspergillus fumigatus, IAM2034, iv, 480 h, read-out: PD50 (50% protection dose)): > 50 mg/kg
2 | COc1cc(O)c2c(c1)C(=O)c1c(cc3c(c1O)-c1c(cc(C)c(C(=O)N[C@H](CO)C(=O)O)c1O)[C@H](O[C@@H]1O[C@H](C)[C@H](N(C)C#N)[C@H](O[C@@H]4OC[C@@H](O)[C@H](O)[C@H]4O)[C@H]1O)[C@H]3O)C2=O [KHM-3, 4'-Cyanooradimicin FA-1] | 25 µg/mL (≈ 28.4 µM) | 25 µg/mL (≈ 28.4 µM) | > 50 mg/kg | 12.5 µg/mL (≈ 14.2 µM) | 6.3 µg/mL (≈ 7.14 µM) | 50 µg/mL (≈ 56.7 µM) | 50 µg/mL (≈ 56.7 µM) | 6.3 µg/mL (≈ 7.14 µM) | 6.3 µg/mL (≈ 7.14 µM) | 6.3 µg/mL (≈ 7.14 µM) | 6.3 µg/mL (≈ 7.14 µM) | 12.5 µg/mL (≈ 14.2 µM) | 6.3 µg/mL (≈ 7.14 µM) | 6.3 µg/mL (≈ 7.14 µM) | 1.6 µg/mL (≈ 1.81 µM) | 6.3 µg/mL (≈ 7.14 µM) | > 50 mg/kg | 3.1 µg/mL (≈ 3.52 µM) | > 50 mg/kg | 0% | responders at 12.5 mg/kg (Candida albicans A9540 [2]; Candida albicans, A9540, 480 h, C. albicans, mice, 12.5 mg/kg iv, 20th day post-infection, read-out: S/T (No. of survivors/tested) (converted)): 0%; responders at 25 mg/kg (Candida albicans A9540 [2]; Candida albicans, A9540, 480 h, C. albicans, mice, 25 mg/kg iv, 20th day post-infection, read-out: S/T (No. of survivors/tested) (converted)): 0%; responders at 50 mg/kg (Candida albicans A9540 [2]; Candida albicans, A9540, 480 h, C. albicans, mice, 50 mg/kg iv, 20th day post-infection, read-out: S/T (No. of survivors/tested) (converted)): 40%; responders at 25 mg/kg [11, 25]: 0%; responders at 50 mg/kg [11, 26]: 0%; ED50 [11, 27]: > 50 mg/kg
3 | COc1cc(O)c2c(c1)C(=O)c1c(cc3c(c1O)-c1c(cc(C)c(C(=O)N[C@H](CO)C(=O)O)c1O)[C@H](O[C@@H]1O[C@H](C)[C@H](N(C)N=O)[C@H](O[C@@H]4OC[C@@H](O)[C@H](O)[C@H]4O)[C@H]1O)[C@H]3O)C2=O [KHM-5, 4'-N-Nitrosopradimicin FA-1] | 3.1 µg/mL (≈ 3.5 µM) | 3.1 µg/mL (≈ 3.5 µM) | > 50 mg/kg | 12.5 µg/mL (≈ 14.1 µM) | 6.3 µg/mL (≈ 7.11 µM) | 6.3 µg/mL (≈ 7.11 µM) | 6.3 µg/mL (≈ 7.11 µM) | 3.1 µg/mL (≈ 3.5 µM) | 6.3 µg/mL (≈ 7.11 µM) | 6.3 µg/mL (≈ 7.11 µM) | 6.3 µg/mL (≈ 7.11 µM) | 12.5 µg/mL (≈ 14.1 µM) | 3.1 µg/mL (≈ 3.5 µM) | 3.1 µg/mL (≈ 3.5 µM) | 3.1 µg/mL (≈ 3.5 µM) | 6.3 µg/mL (≈ 7.11 µM) | > 50 mg/kg | 3.1 µg/mL (≈ 3.5 µM) | > 50 mg/kg | 0% | responders at 12.5 mg/kg (Candida albicans A9540 [2]; [28]): 20%; responders at 25 mg/kg (Candida albicans A9540 [2]; [28]): 0%; responders at 50 mg/kg (Candida albicans A9540 [2]; [28]): 40%; responders at 25 mg/kg [11, 25]: 0%; responders at 50 mg/kg [11, 26]: 40%; ED50 [11, 27]: > 50 mg/kg
